Experiment: xn = mol fraction of the nth substance listed
Settings: 101 kPa

CN1CCCC1=O + CCCC[n+]1ccn(C)c1.[Cl-]
x1 = 1
Settings | speed of sound [m/s]
308.15 K | 1528
313.15 K | 1520

CCCC[n+]1ccn(C)c1.[Cl-] + CN1CCCC1=O
speed of sound [m/s]
Settings | 298.15 K | 303.15 K | 308.15 K | 313.15 K
x1 = 0.0138 | 1575 | 1555 | 1531 | 1527
x2 = 0 | 1874 | 1865 | 1855 | 1827
x2 = 0.01 | – | 1860 | 1848 | –
x2 = 0.0396 | 1853 | 1844 | – | –
x2 = 0.0814 | 1837 | 1829 | 1819 | 1796
x2 = 0.1986 | 1800 | 1790 | 1779 | 1760
x2 = 0.3683 | 1755 | – | – | –
x2 = 0.5125 | 1723 | – | 1688 | 1674
x2 = 0.6367 | – | 1674 | 1654 | –
x2 = 0.704 | 1670 | 1655 | – | 1623
x2 = 0.7466 | 1656 | – | 1621 | 1611
x2 = 0.8415 | 1625 | 1609 | – | –
x2 = 0.8939 | 1606 | 1588 | 1568 | 1559
x2 = 0.9254 | – | – | 1556 | 1552
x2 = 0.9721 | 1579 | 1562 | 1539 | 1536

CN1CCCC1=O + CC[n+]1ccn(C)c1.COS(=O)(=O)[O-]
x1 = 1
Settings | speed of sound [m/s] | viscosity [mPa·s]
298.15 K | 1572 | 1.66
303.15 K | 1552 | 1.49
308.15 K | 1528 | 1.39

CC[n+]1ccn(C)c1.COS(=O)(=O)[O-] + CN1CCCC1=O
Settings | speed of sound, 298.15 K [m/s] | speed of sound, 303.15 K [m/s] | speed of sound, 308.15 K [m/s] | speed of sound, 313.15 K [m/s] | viscosity, 298.15 K [mPa·s] | viscosity, 303.15 K [mPa·s] | viscosity, 308.15 K [mPa·s] | viscosity, 313.15 K [mPa·s]
x1 = 0.0115 | 1579 | 1557 | – | 1518 | 2.22 | 1.88 | – | 1.6
x2 = 0 | 1730 | 1718 | 1707 | 1694 | 84 | 69 | 56.7 | 47.6
x2 = 0.0419 | 1724 | 1708 | 1692 | 1679 | 77 | 63 | 51.3 | 42.8
x2 = 0.0861 | 1718 | 1702 | 1685 | – | 69 | 56 | 45.9 | –
x2 = 0.2085 | 1711 | 1688 | 1663 | 1644 | 53.3 | 42.1 | 33.6 | 27.7
x2 = 0.3825 | 1700 | – | 1651 | 1632 | 35.9 | – | 21.8 | 17.7
x2 = 0.5291 | 1684 | – | 1630 | 1614 | 23.3 | – | 14 | 11.5
x2 = 0.6518 | 1663 | 1638 | – | 1593 | 14.6 | 10.8 | – | 8.2
x2 = 0.718 | 1649 | 1622 | – | 1579 | 10.5 | 8.9 | – | 6.07
x2 = 0.757 | 1639 | 1610 | 1582 | 1566 | 9.2 | 7.3 | 5.82 | 5.22
x2 = 0.8502 | – | 1589 | 1560 | 1545 | – | 4.04 | 3.61 | 3.27
x2 = 0.8983 | 1604 | 1577 | 1544 | 1528 | 4.01 | 3.11 | 2.8 | 2.56
x2 = 0.9298 | 1596 | – | 1536 | 1524 | 3.43 | – | 2.22 | 2.11
x2 = 0.9743 | 1582 | 1560 | 1534 | 1522 | 3.11 | 2.05 | 1.86 | 1.73

From a compilation of properties of binary mixtures (doi:10.1016/j.molliq.2014.07.002)
